According to article PMC9635080, “Design, synthesis, in vitro, and in silico biological evaluations of coumarin-indole hybrids as new anti-α-glucosidase agents” (BMC Chemistry, 2022):

Assays:
yeast α-glucosidase [1] = target: T1, yeast α-glucosidase (Saccharomyces cerevisiae, UniProt P53341); experiment: In vitro α-glucosidase inhibition assay; format: biochemical; details: for inhibitory activity against α-glucosidase (in words): SAR discussion; for potency relative to acarbose: fold more potent than acarbose, from IC50 values
T1 construct: purchased Sigma-Aldrich
T1 sequence (P53341 whole entry): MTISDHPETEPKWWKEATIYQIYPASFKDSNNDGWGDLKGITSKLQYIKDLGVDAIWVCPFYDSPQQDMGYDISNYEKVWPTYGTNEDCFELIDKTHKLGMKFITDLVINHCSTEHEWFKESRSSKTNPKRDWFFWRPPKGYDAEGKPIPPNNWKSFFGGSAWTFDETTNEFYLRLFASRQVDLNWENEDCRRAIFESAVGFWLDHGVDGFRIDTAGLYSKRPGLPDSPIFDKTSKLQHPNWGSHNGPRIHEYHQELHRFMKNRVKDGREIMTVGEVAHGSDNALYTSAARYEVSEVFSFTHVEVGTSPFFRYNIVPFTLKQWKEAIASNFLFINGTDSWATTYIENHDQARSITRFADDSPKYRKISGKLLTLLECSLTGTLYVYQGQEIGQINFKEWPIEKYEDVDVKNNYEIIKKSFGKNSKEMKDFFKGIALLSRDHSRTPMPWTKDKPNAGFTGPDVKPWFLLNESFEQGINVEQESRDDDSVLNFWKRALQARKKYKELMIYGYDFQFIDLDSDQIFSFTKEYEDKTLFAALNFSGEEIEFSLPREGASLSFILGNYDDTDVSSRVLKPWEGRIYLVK
Experimental: Appropriate enzyme concentration was obtained in potassium phosphate buffer (pH 6.8, 50 mM), and coumarin-indole hybrids 4a–m were dissolved in DMSO (10% final concentration). […] The percentage of enzyme inhibition (% Inhibition) for each sample was calculated by using the following formula: %Inhibition=[(Abs control-Abs sample)/Abs control]×100
IC50 values were calculated from non-linear regression curve using by the Logit method.

yeast α-glucosidase [2] = target: T1, yeast α-glucosidase; experiment: Kinetic study (Lineweaver–Burk plot) on α-glucosidase; format: biochemical
Experimental: To determine the mechanism of α-glucosidase inhibition of the newly synthesized compounds, the kinetic study was performed on compound 4d as representative compound. The relative velocity of the α-glucosidase was determined on four increasing concentrations of the p-nitrophenyl glucopyranoside as substrate. […] Then, the Lineweaver-Burke plot was depicted using the reciprocal of velocity and substrate concentration (Fig. 2a).
Fig. 2 Kinetic study of compound 4d into α-glucosidase. a The Lineweaver–Burk plot in the absence and presence of different concentrations of compound 4d; b The secondary plot between Km and various concentrations of compound 4d
Appropriate enzyme concentration was obtained in potassium phosphate buffer (pH 6.8, 50 mM), and coumarin-indole hybrids 4a–m were dissolved in DMSO (10% final concentration). The potassium phosphate buffer (135 µL), various concentrations of the target compounds 4a–m (20 µL), and prepared enzyme solution (20 µL) were added to the 96-well plate and the later mixture was incubated for 10 min at 37 °C. […] Finally, the change in absorbance of the final mixture was measured at 405 nm by using spectrophotometer (Gen5, Power wave xs2, BioTek, America). […] The percentage of enzyme inhibition (% Inhibition) for each sample was calculated by using the following formula: %Inhibition=[(Abs control-Abs sample)/Abs control]×100

Compound | IC50 (yeast α-glucosidase [1]) [µM] | melting point [°C] | inhibitory activity against α-glucosidase (in words) (yeast α-glucosidase [1]) | Ki (yeast α-glucosidase [2]) [µM] | type of inhibition (yeast α-glucosidase [2]; Lineweaver–Burk plot, inhibitor 0, 28, 58 and 116 µM) | potency relative to acarbose (yeast α-glucosidase [1])
O=c1oc2ccccc2c(O)c1C(c1cccc([N+](=O)[O-])c1)c1c[nH]c2ccccc12 (stereo not drawn) [Compound 4m, 3-((1H-indol-3-yl)(3-nitrophenyl)methyl)-4-hydroxy-2H-chromen-2-one] | 180.5 ± 1.4 | 198 to 200 | – | – | – | –
O=c1oc2ccccc2c(O)c1C(c1cccc(Cl)c1)c1c[nH]c2ccccc12 (stereo not drawn) [Compound 4i, 3-((3-Chlorophenyl)(1H-indol-3-yl)methyl)-4-hydroxy-2H-chromen-2-one] | > 750 | 205 to 207 | loss of effect | – | – | –
O=c1oc2ccccc2c(O)c1C(c1cccc(F)c1)c1c[nH]c2ccccc12 (stereo not drawn) [Compound 4g, 3-((3-Fluorophenyl)(1H-indol-3-yl)methyl)-4-hydroxy-2H-chromen-2-one] | 174 ± 2.3 | 222 to 224 | – | – | – | –
O=c1oc2ccccc2c(O)c1C(c1ccccc1[N+](=O)[O-])c1c[nH]c2ccccc12 (stereo not drawn) [Compound 4l, 3-((1H-indol-3-yl)(2-nitrophenyl)methyl)-4-hydroxy-2H-chromen-2-one] | > 750 | 240 to 242 | completely abolished anti-α-glucosidase activity | – | – | –
COc1ccc(C(c2c(O)c3ccccc3oc2=O)c2c[nH]c3ccccc23)cc1 (stereo not drawn) [Compound 4c, 3-((1H-indol-3-yl)(4-methoxyphenyl)methyl)-4-hydroxy-2H-chromen-2-one] | 170 ± 2.1 | 246 to 248 | – | – | – | –
Cc1ccc(C(c2c(O)c3ccccc3oc2=O)c2c[nH]c3ccccc23)cc1 (stereo not drawn) [Compound 4b, 3-((1H-indol-3-yl)(p-tolyl)methyl)-4-hydroxy-2H-chromen-2-one] | 167.5 ± 0.8 | 269 to 271 | – | – | – | –
O=c1oc2ccccc2c(O)c1C(c1cccc(Oc2ccccc2)c1)c1c[nH]c2ccccc12 (stereo not drawn) [Compound 4d, 3-((1H-indol-3-yl)(3-phenoxyphenyl)methyl)-4-hydroxy-2H-chromen-2-one] | 116 ± 0.7 | 183 to 185 | – | 148 | competitive type of inhibition | around sixfold
O=c1oc2ccccc2c(O)c1C(c1ccc(Cl)cc1)c1c[nH]c2ccccc12 (stereo not drawn) [Compound 4j, 3-((4-Chlorophenyl)(1H-indol-3-yl)methyl)-4-hydroxy-2H-chromen-2-one] | 230 ± 2.3 | 235 to 237 | – | – | – | –
O=c1oc2ccccc2c(O)c1C(c1ccccc1)c1c[nH]c2ccccc12 (stereo not drawn) [Compound 4a, 3-((1H-indol-3-yl)(phenyl)methyl)-4-hydroxy-2H-chromen-2-one] | 118 ± 3.1 | 231 to 233 | – | – | – | around sixfold
O=c1oc2ccccc2c(O)c1C(c1ccc(F)cc1)c1c[nH]c2ccccc12 (stereo not drawn) [Compound 4h, 3-((4-Fluorophenyl)(1H-indol-3-yl)methyl)-4-hydroxy-2H-chromen-2-one] | 474.9 ± 2.6 | 243 to 245 | dramatically decrease in inhibitory activity | – | – | –
O=c1oc2ccccc2c(O)c1C(c1cccc(O)c1)c1c[nH]c2ccccc12 (stereo not drawn) [Compound 4e, 4-Hydroxy-3-((3-hydroxyphenyl)(1H-indol-3-yl)methyl)-2H-chromen-2-one] | > 750 | 200 to 202 | loss of effect | – | – | –
O=c1oc2ccccc2c(O)c1C(c1cccc(Br)c1)c1c[nH]c2ccccc12 (stereo not drawn) [Compound 4k, 3-((3-Bromophenyl)(1H-indol-3-yl)methyl)-4-hydroxy-2H-chromen-2-one] | > 750 | 212 to 214 | did not show activity | – | – | –
O=c1oc2ccccc2c(O)c1C(c1ccc(O)cc1)c1c[nH]c2ccccc12 (stereo not drawn) [Compound 4f, 4-Hydroxy-3-((4-hydroxyphenyl)(1H-indol-3-yl)methyl)-2H-chromen-2-one] | > 750 | 286 to 288 | loss of effect | – | – | –
